Laboratory results from US20100331348A1, “TROPANE DERIVATIVES USEFUL AS PESTICIDES” (SYNGENTA CROP PROTECTION, INC., priority 2007, published 2010).

Tested on: Erysiphe graminis f.sp. tritici
Assay: Erysiphe graminis f.sp. tritici (wheat powdery mildew) leaf disk assay
Type: in vivo
Settings: Blumeria graminis, foliar, 96 h, preventive, four days after inoculation, read-out: control of fungal infection, Erysiphe graminis fsp. tritici

| Structure (SMILES) | pest or weed control at 200 ppm [%] |
| --- | --- |
| COc1cc(OC2C[C@H]3CC[C@@H](C2)N3c2ncnc3sccc23)cc(OC)c1OC (stereo partly drawn) [Example 1.13] | ≥ 80 |
| Cc1ccc(-c2nc(Cl)c(C)c(OC3C[C@H]4CC[C@@H](C3)N4c3ncnc4sccc34)n2)cc1 (stereo partly drawn) [Example 1.97] | ≥ 80 |
| CCCCCCOc1ccc(OC2C[C@H]3CC[C@@H](C2)N3c2ncnc(CC)c2Cl)cc1 (stereo partly drawn) [Example 1.140] | ≥ 80 |
| CCc1ncnc(N2[C@@H]3CC[C@H]2CC(Oc2ccc(C)cc2)C3)c1Cl (stereo partly drawn) [Example 1.162] | ≥ 80 |
| CCc1ncnc(N2[C@@H]3CC[C@H]2CC(Oc2ccc(Br)cc2C)C3)c1Cl (stereo partly drawn) [Example 1.180] | ≥ 80 |
| CCc1ncnc(N2[C@@H]3CC[C@H]2CC(Oc2cc(Cl)c(Cl)cc2Cl)C3)c1Cl (stereo partly drawn) [Example 1.196] | ≥ 80 |
| CCc1ncnc(N2[C@@H]3CC[C@H]2CC(Oc2ccc(C(C)(C)C)cc2C(C)(C)C)C3)c1Cl (stereo partly drawn) [Example 1.221] | ≥ 80 |
| COc1ccccc1OC1C[C@H]2CC[C@@H](C1)N2c1ncnc2sccc12 (stereo partly drawn) [Example 2.4] | ≥ 80 |
| c1cc(OC2C[C@H]3CC[C@@H](C2)N3c2ncnc3sccc23)ccn1 (stereo partly drawn) [Example 2.7] | ≥ 80 |
| Cc1ccc(OC2C[C@H]3CC[C@@H](C2)N3c2ncnc3sccc23)cc1 (stereo partly drawn) [Example 2.8] | ≥ 80 |
| Fc1ccc(OC2C[C@H]3CC[C@@H](C2)N3c2ncnc3sccc23)cc1 (stereo partly drawn) [Example 2.11] | ≥ 80 |
| Clc1ccc(Oc2cccc(OC3C[C@H]4CC[C@@H](C3)N4c3ncnc4sccc34)c2)cc1 (stereo partly drawn) [Example 2.15] | ≥ 80 |
| COc1ccc(OC2C[C@H]3CC[C@@H](C2)N3c2ncnc3sccc23)c(Cl)c1 (stereo partly drawn) [Example 2.16] | ≥ 80 |
| N#Cc1ccc(OC2C[C@H]3CC[C@@H](C2)N3c2ncnc3sccc23)cc1 (stereo partly drawn) [Example 2.22] | ≥ 80 |
| Fc1cccc(OC2C[C@H]3CC[C@@H](C2)N3c2ncnc3sccc23)c1F (stereo partly drawn) [Example 2.24] | ≥ 80 |
| CC(C)(C)c1ccc(OC2C[C@H]3CC[C@@H](C2)N3c2ncnc3sccc23)cc1 (stereo partly drawn) [Example 2.26] | ≥ 80 |
| c1nc(C2C[C@H]3CC[C@@H](C2)N3c2ncnc3sccc23)c2ccsc2n1 (stereo partly drawn) [Example 2.28] | ≥ 80 |
| CC(C)(C)CC(C)(C)c1ccc(OC2C[C@H]3CC[C@@H](C2)N3c2ncnc3sccc23)cc1 (stereo partly drawn) [Example 2.35] | ≥ 80 |
| Fc1c(F)c(F)c(OC2C[C@H]3CC[C@@H](C2)N3c2ncnc3sccc23)c(F)c1F (stereo partly drawn) [Example 2.38] | ≥ 80 |
| CSc1ccc(OC2C[C@H]3CC[C@@H](C2)N3c2ncnc3sccc23)cc1C (stereo partly drawn) [Example 2.41] | ≥ 80 |
| Cc1ccc(C(C)(C)C)c(OC2C[C@H]3CC[C@@H](C2)N3c2ncnc3sccc23)c1 (stereo partly drawn) [Example 2.43] | ≥ 80 |
| CC(C)(C)c1ccc(OC2C[C@H]3CC[C@@H](C2)N3c2ncnc3sccc23)c(C(C)(C)C)c1 (stereo partly drawn) [Example 2.45] | ≥ 80 |
| CCC(C)c1cccc(C(C)CC)c1OC1C[C@H]2CC[C@@H](C1)N2c1ncnc2sccc12 (stereo partly drawn) [Example 2.46] | ≥ 80 |
| Cc1ccc(-c2c(C)cccc2C)c(C)c1OC1C[C@H]2CC[C@@H](C1)N2c1ncnc2sccc12 (stereo partly drawn) [Example 2.49] | ≥ 80 |

| Structure (SMILES) | pest or weed control at 200 ppm [%] |
| --- | --- |
| c1ccc2c(c1)CCC2c1ccc(OC2C[C@H]3CC[C@@H](C2)N3c2ncnc3sccc23)cc1 (stereo partly drawn) [Example 2.53] | ≥ 80 |
| CC(=O)c1cc(Cl)c2ccccc2c1OC1C[C@H]2CC[C@@H](C1)N2c1ncnc2sccc12 (stereo partly drawn) [Example 2.59] | ≥ 80 |
| c1ccc(-c2nnco2)c(OC2C[C@H]3CC[C@@H](C2)N3c2ncnc3sccc23)c1 (stereo partly drawn) [Example 2.68] | ≥ 80 |
| Cc1nsc(Oc2ccc(OC3C[C@H]4CC[C@@H](C3)N4c3ncnc4scc(C)c34)cc2)n1 (stereo partly drawn) [Example 2.72] | ≥ 80 |
| CCc1ncnc(N2[C@@H]3CC[C@H]2CC(Oc2cccc(Oc4nc(C)ns4)c2)C3)c1Cl (stereo partly drawn) [Example 2.89] | ≥ 80 |
| CCc1ncnc(N2[C@@H]3CC[C@H]2CC(Oc2ccc(Oc4nc(C)ns4)cc2)C3)c1Cl (stereo partly drawn) [Example 2.91] | ≥ 80 |
| Cc1c(Cl)ncnc1N1[C@@H]2CC[C@H]1CC(Oc1cccc(C(F)(F)F)n1)C2 (stereo partly drawn) [Example 2.94] | ≥ 80 |
| CCc1ncnc(N2[C@@H]3CC[C@H]2CC(Oc2cccc(F)c2)C3)c1Cl (stereo partly drawn) [Example 2.117] | ≥ 80 |
| CCc1ncnc(N2[C@@H]3CC[C@H]2CC(Oc2ccc(F)c(F)c2)C3)c1Cl (stereo partly drawn) [Example 2.125] | ≥ 80 |
| CCOc1cc(C)ccc1OC1C[C@H]2CC[C@@H](C1)N2c1ncnc(CC)c1Cl (stereo partly drawn) [Example 2.126] | ≥ 80 |
| CCc1ncnc(N2[C@@H]3CC[C@H]2CC(Oc2ccc(C(C)(C)c4ccc(O)cc4)cc2)C3)c1Cl (stereo partly drawn) [Example 2.131] | ≥ 80 |
| CCc1ncnc(N2[C@@H]3CC[C@H]2CC(Oc2ccc(C(=O)c4ccccc4)cc2)C3)c1Cl (stereo partly drawn) [Example 2.141] | ≥ 80 |
| CCc1ncnc(N2[C@@H]3CC[C@H]2CC(Oc2ccc(OC)cc2Cl)C3)c1Cl (stereo partly drawn) [Example 2.142] | ≥ 80 |
| CCc1ncnc(N2[C@@H]3CC[C@H]2CC(Oc2ccccc2C(F)(F)F)C3)c1Cl (stereo partly drawn) [Example 2.146] | ≥ 80 |
| CCc1ncnc(N2[C@@H]3CC[C@H]2CC(Oc2cccc(C(F)(F)F)c2F)C3)c1Cl (stereo partly drawn) [Example 2.148] | ≥ 80 |
| COCc1ncnc(N2[C@@H]3CC[C@H]2CC(Oc2cc(C(F)(F)F)ccn2)C3)c1OC (stereo partly drawn) [Example 2.152] | ≥ 80 |
| CCc1ncnc(N2[C@@H]3CC[C@H]2CC(Oc2ccc(C4CCc5ccccc54)cc2)C3)c1Cl (stereo partly drawn) [Example 2.173] | ≥ 80 |
| CCc1ncnc(N2[C@@H]3CC[C@H]2CC(Oc2ccc(Br)cc2C(C)=O)C3)c1Cl (stereo partly drawn) [Example 2.182] | ≥ 80 |
| CCc1ncnc(N2[C@@H]3CC[C@H]2CC(Oc2c(C(C)=O)cc(Cl)c4ccccc24)C3)c1Cl (stereo partly drawn) [Example 2.187] | ≥ 80 |
| CCc1ncnc(N2[C@@H]3CC[C@H]2CC(Oc2ccccc2-c2nnc(C(C)(C)C)o2)C3)c1Cl (stereo partly drawn) [Example 2.190] | ≥ 80 |
| FC(F)(F)c1ccnc(OC2C[C@H]3CC[C@@H](C2)N3c2ccnc3cc(Cl)ccc23)c1 (stereo partly drawn) [Example 2.192] | ≥ 80 |
| Cc1nsc(N2[C@@H]3CC[C@H]2CC(Oc2ccc(C(F)(F)F)cn2)C3)n1 (stereo partly drawn) [Example 2.203] | ≥ 80 |
| CCC(=O)c1cc(F)c(OC2C[C@H]3CC[C@@H](C2)N3c2ncnc(CC)c2Cl)c(F)c1 (stereo partly drawn) [Example 2.207] | ≥ 80 |
| Cn1nc(C(F)(F)F)c(Cl)c1C(=O)N1[C@@H]2CC[C@H]1CC(Oc1cc(C(F)(F)F)ccn1)C2 (stereo partly drawn) [Example 2.220] | ≥ 80 |

| Structure (SMILES) | pest or weed control at 200 ppm [%] |
| --- | --- |
| CCc1ncnc(N2C3CCC2CC(=NOCc2c4ccccc4cc4ccccc24)C3)c1Cl [Example 5.9] | ≥ 80 |
| CCc1ncnc(N2C3CCC2CC(=NOCc2ccc(C(C)(C)C)cc2)C3)c1Cl [Example 5.26] | ≥ 80 |
| CCc1ncnc(N2C3CCC2CC(=NOCc2ccccc2CCl)C3)c1Cl [Example 5.42] | ≥ 80 |
| C#CCON=C1CC2CCC(C1)N2c1ncnc(C(C)c2ncnc(CC)c2Cl)c1Cl (stereo not drawn) [Example 5.49] | ≥ 80 |
| CCc1ncnc(N2C3CCC2CC(=NOCc2ccc(Cl)c(Cl)c2)C3)c1Cl [Example 5.52] | ≥ 80 |
| CCc1ncnc(N2C3CCC2CC(=NOCc2cc(Br)cc(Br)c2)C3)c1Cl [Example 5.53] | ≥ 80 |
| CCc1ncnc(N2C3CCC2CC(=NOCc2cc(Cl)ccc2Cl)C3)c1Cl [Example 5.62] | ≥ 80 |
| CCc1ncnc(N2C3CCC2CC(=NOc2cc(Cl)nc(Cl)n2)C3)c1Cl [Example 5.71] | ≥ 80 |
| CCc1ncnc(N2C3CCC2CC(=NOc2nc(N(C)C)cc(C(F)(F)F)n2)C3)c1Cl [Example 5.72] | ≥ 80 |
| CCc1ncnc(N2C3CCC2CC(=NOCc2cccc(OC(F)(F)F)c2)C3)c1Cl [Example 5.75] | ≥ 80 |
| CCc1ncnc(C(C)c2ncnc(N3C4CCC3CC(=NOCc3ccccc3)C4)c2Cl)c1Cl (stereo not drawn) [Example 5.77] | ≥ 80 |
| CCc1ncnc(N2C3CCC2CC(=NOc2cc(C)nc(SC)n2)C3)c1Cl [Example 5.94] | ≥ 80 |
| CCc1ncnc(N2C3CCC2CC(=NOCc2cc(F)cc(C(F)(F)F)c2)C3)c1Cl [Example 5.96] | ≥ 80 |
| CCc1ncnc(N2C3CCC2CC(=NOc2cc(OC)nc(OC)n2)C3)c1Cl [Example 5.97] | ≥ 80 |
| CCc1ncnc(N2C3CCC2CC(=NOCc2cc(F)ccc2C(F)(F)F)C3)c1Cl [Example 5.101] | ≥ 80 |
| CCc1ncnc(C(C)c2ncnc(N3C4CCC3CC(=NOCc3ccc(F)cc3)C4)c2Cl)c1Cl (stereo not drawn) [Example 5.102] | ≥ 80 |
| CCc1ncnc(N2C3CCC2CC(=NOCc2cc(F)c(F)c(C(F)(F)F)c2)C3)c1Cl [Example 5.103] | ≥ 80 |
| CCc1ncnc(N2C3CCC2CC(=NOc2cc(Oc4ccccc4)ncn2)C3)c1Cl [Example 5.108] | ≥ 80 |
| CCc1ncnc(N2C3CCC2CC(=NOc2nc(SC)nc(Cl)c2-c2ccccc2)C3)c1Cl [Example 5.125] | ≥ 80 |
| ON=C1CC2CCC(C1)N2c1ncnc2sccc12 [Example 5.127] | ≥ 80 |
| CN(C)c1cc(C(F)(F)F)nc(ON=C2CC3CCC(C2)N3c2ncnc3sccc23)n1 [Example 5.130] | ≥ 80 |
| Cc1cc(Cl)nc(CON=C2CC3CCC(C2)N3c2ncnc3sccc23)n1 [Example 5.132] | ≥ 80 |
| c1cncc(CON=C2CC3CCC(C2)N3c2ncnc3sccc23)c1 [Example 5.133] | ≥ 80 |
| CCc1nc(Cl)c(C)c(ON=C2CC3CCC(C2)N3c2ncnc3sccc23)n1 [Example 5.171] | ≥ 80 |
